Patent US11753407B2, “Compounds for treating spinal muscular atrophy” (PTC Therapeutics, Inc., priority 2012, dated 2023)

Experiments:
[1] = system: Smn protein in SMA patient fibroblast cells (GM03813); assay: Smn protein assay in cultured cells (SMN HTRF); format: cell-based, human; details: SMA patient fibroblast cells, 48 hours; for EC1.5x for Smn protein expression: 7-point concentration curve, SMN HTRF, concentration producing 1.5 times Smn protein vs DMSO vehicle control; for maximum fold (Fold) increase of Smn protein: 7-point concentration data, fold relative to vehicle control
In short: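 Smn protein quantified by HTRF with anti-SMN d2/kryptate pair, 665/620 nm ratio blank-corrected, in RIPA lysates of GM03813 fibroblasts after 48 h compound exposure (7 concentrations, 3.16-fold steps, triplicates). Values: concentration producing 1.5× vehicle Smn level, and maximal fold increase.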

[2] = system: SMN2 minigene mRNA (SMN2-A minigene) in HEK293H cells; assay: SMN2 minigene mRNA splicing RT-qPCR assay in cultured cells; format: cell-based, human; details: Homo sapiens, HEK293-H; concentration increasing full length SMN2 mRNA 1.5-fold relative to vehicle-treated cells; HEK293H cells with SMN2-A minigene, 24 hours, 7-point concentration data; read-out: EC1.5x for production of full length SMN2 mRNA
In short: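 EC1.5× = concentration raising full-length SMN2 minigene mRNA 1.5-fold over vehicle, from 7-point curves in duplicate. Stably transfected HEK293H cells exposed 24 h at 37 °C; lysates assayed by multiplex RT-qPCR, minigene FL signal normalized to GAPDH via modified ΔΔCt.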

SMILES	EC1.5x for Smn protein expression [1]	maximum fold (Fold) increase of Smn protein [1]	EC (1.5-fold increase) [2] [µM]
CCc1cc(-c2cc(=O)n3cc(N4CCN(C5CCC5)[C@@H](C)C4)ccc3n2)cn2cc(C)nc12 [Compound 652, 7-[(3S)-4-cyclobutyl-3-methylpiperazin-1-yl]-2-(8-ethyl-2-methylimidazo[1,2-a]pyridin-6-yl)-4H-pyrido[1,2-a]pyrimidin-4-one]	**** (an EC1.5x≤0.3 μM is indicated by four stars (****))	***** (a fold increase >1.65 is indicated by five stars (*****))	< 0.1
CCc1nc(C)cn2nc(-c3cc(=O)n4cc(C5CCNCC5)ncc4n3)cc12 [Compound 653, 2-(4-ethyl-6-methylpyrazolo[1,5-a]pyrazin-2-yl)-7-(piperidin-4-yl)-4H-pyrazino[1,2-a]pyrimidin-4-one]	**** (an EC1.5x≤0.3 μM is indicated by four stars (****))	***** (a fold increase >1.65 is indicated by five stars (*****))	< 0.1
Cc1cn2nc(-c3cc(=O)n4cc(N5CCN(CCOCCO)[C@H](C)C5)cc(C)c4n3)cc2c(C)n1 [Compound 670, 2-(4,6-dimethylpyrazolo[1,5-a]pyrazin-2-yl)-7-{(3R)-4-[2-(2-hydroxyethoxy)ethyl]-3-methylpiperazin-1-yl}-9-methyl-4H-pyrido[1,2-a]pyrimidin-4-one]	**** (an EC1.5x≤0.3 μM is indicated by four stars (****))	***** (a fold increase >1.65 is indicated by five stars (*****))	< 0.1
Cc1cn2nc(-c3cc(=O)n4cc(C5CCN(C)CC5)cc(C)c4n3)cc2c(C)n1 [Compound 672, 2-(4,6-dimethylpyrazolo[1,5-a]pyrazin-2-yl)-9-methyl-7-(1-methylpiperidin-4-yl)-4H-pyrido[1,2-a]pyrimidin-4-one]	**** (an EC1.5x≤0.3 μM is indicated by four stars (****))	***** (a fold increase >1.65 is indicated by five stars (*****))	< 0.1
CCc1cc(-c2cc(=O)n3cc(N4C[C@@H](C)N[C@@H](C)C4)ccc3n2)cn2cc(C)nc12 [Compound 675, 7-[(3R,5S)-3,5-dimethylpiperazin-1-yl]-2-(8-ethyl-2-methylimidazo[1,2-a]pyridin-6-yl)-4H-pyrido[1,2-a]pyrimidin-4-one]	**** (an EC1.5x≤0.3 μM is indicated by four stars (****))	***** (a fold increase >1.65 is indicated by five stars (*****))	< 0.1
CCc1cc(-c2cc(=O)n3cc(N4CCCN(C)CC4)ccc3n2)cn2cc(C)nc12 [Compound 676, 2-(8-ethyl-2-methylimidazo[1,2-a]pyridin-6-yl)-7-(4-methyl-1,4-diazepan-1-yl)-4H-pyrido[1,2-a]pyrimidin-4-one]	*** (an EC1.5× between >0.3 μM and ≤1 μM is indicated by three stars (***))	***** (a fold increase >1.65 is indicated by five stars (*****))	< 0.1
CCN1CCC(c2cc(C)c3nc(-c4cc5c(C)nc(C)cn5n4)cc(=O)n3c2)CC1 [Compound 702, 2-(4,6-dimethylpyrazolo[1,5-a]pyrazin-2-yl)-7-(1-ethylpiperidin-4-yl)-9-methyl-4H-pyrido[1,2-a]pyrimidin-4-one]	**** (an EC1.5x≤0.3 μM is indicated by four stars (****))	***** (a fold increase >1.65 is indicated by five stars (*****))	< 0.1
Cc1cn2cc(-c3cc(=O)n4cc(N5CCN[C@H](C)C5)ccc4n3)cc2c(C)n1 [Compound 713, 2-(1,3-dimethylpyrrolo[1,2-a]pyrazin-7-yl)-7-[(3R)-3-methylpiperazin-1-yl]-4H-pyrido[1,2-a]pyrimidin-4-one]	**** (an EC1.5x≤0.3 μM is indicated by four stars (****))	***** (a fold increase >1.65 is indicated by five stars (*****))	< 0.1
Cc1cn2nc(-c3cc(=O)n4cc(CCCN)ccc4n3)cc2c(C)n1 [Compound 742, 7-(3-aminopropyl)-2-(4,6-dimethylpyrazolo[1,5-a]pyrazin-2-yl)-4H-pyrido[1,2-a]pyrimidin-4-one]	*** (an EC1.5× between >0.3 μM and ≤1 μM is indicated by three stars (***))	***** (a fold increase >1.65 is indicated by five stars (*****))	0.1 to 0.3
Cc1cc(N2CCN[C@H](C)C2)cn2c(=O)cc(-c3ccc4nn(C)cc4c3)nc12 [Compound 755, 9-methyl-2-(2-methyl-2H-indazol-5-yl)-7-[(3R)-3-methylpiperazin-1-yl]-4H-pyrido[1,2-a]pyrimidin-4-one]	**** (an EC1.5x≤0.3 μM is indicated by four stars (****))	***** (a fold increase >1.65 is indicated by five stars (*****))	< 0.1
Cc1cc(N2CCN[C@@H](C)C2)cn2c(=O)cc(-c3ccc4nn(C)cc4c3)nc12 [Compound 756, 9-methyl-2-(2-methyl-2H-indazol-5-yl)-7-[(3S)-3-methylpiperazin-1-yl]-4H-pyrido[1,2-a]pyrimidin-4-one]	**** (an EC1.5x≤0.3 μM is indicated by four stars (****))	***** (a fold increase >1.65 is indicated by five stars (*****))	< 0.1
CCc1nc(C)cn2nc(-c3cc(=O)n4cc(C5=CCNCC5)cc(C)c4n3)cc12 [Compound 773, 2-(4-ethyl-6-methylpyrazolo[1,5-a]pyrazin-2-yl)-9-methyl-7-(1,2,3,6-tetrahydropyridin-4-yl)-4H-pyrido[1,2-a]pyrimidin-4-one]	**** (an EC1.5x≤0.3 μM is indicated by four stars (****))	***** (a fold increase >1.65 is indicated by five stars (*****))	< 0.1
CCc1nc(C)cn2nc(-c3cc(=O)n4cc(C5CCN(C)CC5)cc(C)c4n3)cc12 [Compound 774, 2-(4-ethyl-6-methylpyrazolo[1,5-a]pyrazin-2-yl)-9-methyl-7-(1-methylpiperidin-4-yl)-4H-pyrido[1,2-a]pyrimidin-4-one]	**** (an EC1.5x≤0.3 μM is indicated by four stars (****))	***** (a fold increase >1.65 is indicated by five stars (*****))	< 0.1
CCNC[C@@H]1CCN(c2ccc3nc(-c4cc5c(C)nc(C)cn5n4)cc(=O)n3c2)C1 [Compound 779, 2-(4,6-dimethylpyrazolo[1,5-a]pyrazin-2-yl)-7-{(3S)-3-[(ethylamino)methyl]pyrrolidin-1-yl}-4H-pyrido[1,2-a]pyrimidin-4-one]	**** (an EC1.5x≤0.3 μM is indicated by four stars (****))	***** (a fold increase >1.65 is indicated by five stars (*****))	< 0.1
CCc1nc(C)cn2nc(-c3cc(=O)n4cc(C5CCN(CC)CC5)cc(C)c4n3)cc12 [Compound 790, 2-(4-ethyl-6-methylpyrazolo[1,5-a]pyrazin-2-yl)-7-(1-ethylpiperidin-4-yl)-9-methyl-4H-pyrido[1,2-a]pyrimidin-4-one]	**** (an EC1.5x≤0.3 μM is indicated by four stars (****))	***** (a fold increase >1.65 is indicated by five stars (*****))	< 0.1
Cc1cn2cc(-c3cc(=O)n4cc(N5CCN(CCO)CC5)ccc4n3)cc(F)c2n1 [Compound 801, 2-(8-fluoro-2-methylimidazo[1,2-a]pyridin-6-yl)-7-[4-(2-hydroxyethyl)piperazin-1-yl]-4H-pyrido[1,2-a]pyrimidin-4-one]	*** (an EC1.5× between >0.3 μM and ≤1 μM is indicated by three stars (***))	***** (a fold increase >1.65 is indicated by five stars (*****))	0.1 to 0.3
CN1CCN(c2ccc3nc(-c4ccc5nccn5c4)cc(=O)n3c2)CC1 [Compound 802, 2-(imidazo[1,2-a]pyridin-6-yl)-7-(4-methylpiperazin-1-yl)-4H-pyrido[1,2-a]pyrimidin-4-one]	* (An EC1.5× for Smn protein expression between >3 μM and ≤10 μM is indicated by one star (*))	***** (a fold increase >1.65 is indicated by five stars (*****))	1 to 3
Cc1nc2c(F)cc(-c3cc(=O)n4cc(N5CCN6CCC[C@H]6C5)ccc4n3)cc2o1 [Compound 803, 2-(4-fluoro-2-methyl-1,3-benzoxazol-6-yl)-7-[(8aS)-hexahydropyrrolo[1,2-a]pyrazin-2(1H)-yl]-4H-pyrido[1,2-a]pyrimidin-4-one]	**** (an EC1.5x≤0.3 μM is indicated by four stars (****))	***** (a fold increase >1.65 is indicated by five stars (*****))	< 0.1
Cc1cn2nc(-c3cc(=O)n4cc(N5CCC6(CC5)CNC6)ccc4n3)cc2c(C)n1 [Compound 804, 7-(2,7-diazaspiro[3.5]non-7-yl)-2-(4,6-dimethylpyrazolo[1,5-a]pyrazin-2-yl)-4H-pyrido[1,2-a]pyrimidin-4-one]	**** (an EC1.5x≤0.3 μM is indicated by four stars (****))	***** (a fold increase >1.65 is indicated by five stars (*****))	< 0.1
